Measured values published in patent US10907159B2, “Methods of treating cancer by inhibition of DNA repair proteins using antisense based therapies” (SARISSA INC., priority 2015, dated 2021).

Legend:
[1] = test system: DU145 human prostate cancer cells; conditions: BR1 pretreatment; FIG. 37
Protocol: Cells were treated for 4 hours with ASO, after which one volume of medium was added and cells were incubated for a further 20 hours. ASO-containing medium was removed and replaced with fresh medium. Cells were then incubated for 4 days and cell numbers assessed. Proliferation of BR1-treated cells was calculated as a percent of proliferation of non-targeting ASO-treated control cells. Initial cell density varied among cell lines.

[2] = test system: HN-5a and HN-5a/carbo-15a head and neck squamous carcinoma cells; assay: Cisplatin sensitivity after ASO transfection (cell counting, colony forming); type: cell-based, human; conditions: FIG. 51
Protocol: HN-5a cells are parental, cisplatin-sensitive human head and neck squamous carcinoma cells, and HN-5a/carbo-10a and HN-5a/carbo-15a cells are cisplatin-resistant lines derived from HN-5a cells (Ferguson et al., Drug Metab. Dispos. 27:1399-1405, 1999). Cells were exposed to cisplatin and effects on proliferation were assessed 72 h after drug treatment. HN-5a cells (b) and HN-5a/carbo-15a cells (c) were transfected with control (black circles) or BRCA2 (white circles) ASO, treated with varying concentrations of cisplatin and then counted 96 h post-transfection. HN-5a cells (d) and […] cells (e) were transfected with control or BRCA2 ASO, treated with different concentrations of cisplatin for 6 h, and then re-plated at a density of 500 cells per well to determine colony forming ability. *Different from cells treated with control ASO using a Student's t-test (p<0.05).

[3] = test system: MDA-MB-231 cells; assay: Cell proliferation assay, ASO transfection then drug (cell counting); type: cell-based, human; conditions: FIG. 49
Protocol: (§1) Four hours post-transfection, cells were seeded into 6 well dishes in appropriate experimental groups. […] Ninety-six hours post transfection, cells were collected and counted (Coulter Particle Counter). Proliferation was determined based on initial cell density and calculated as a percentage of ASO+vehicle treated cells.

[4] = test system: BRCA2 mRNA; assay: RT-qPCR of BRCA2 mRNA in A549 cells after OLIGO transfection; type: cell-based, human; conditions: 20 nM OLIGO, 24 hours post-transfection; FIG. 16
Protocol: Briefly, A549 cells seeded at a density of 2.0×10^5 per flask were transfected with 20 nM of OLIGO specific for each target or control OLIGO using Lipofectamine 2000 as the transfection reagent. Twenty four hours post-transfection mRNA was extracted and reverse transcribed into cDNA. RT-qPCR was performed for target mRNA levels using TaqMan reagents according to established protocols.

[5] = test system: A549b cells; assay: cells; type: cell-based, human; conditions: for enhancement of cisplatin (words): BR1 ASO pretreatment, FIGS. 38, 50
Protocol: OLIGOs were introduced into cells with the use of Lipofectamine 2000 (LFA2K) (Invitrogen, Burlington, Ontario, Canada). OLIGOs were mixed with LFA2K at a ratio of 0.2 μg/ml per 10 nM OLIGO. The mixture was prepared at 11× the final concentration to which cells were exposed, so that 200 μL was added to 2 mL of medium in which cells were plated. After incubating at room temperature for 20 minutes, according to manufacturer's instructions, the OLIGOs were added to the cell medium. The OLIGO/LFA2K mix was then incubated (37° C.) on the cells for 4 hours, after which a second volume of medium was added. Cells were then incubated for 20 hours. Following this incubation, the OLIGO-containing medium was replaced with OLIGO-free medium.
For cells treated with the drug olaparib, for the purposes of determining whether inhibitory activity was enhanced by the OLIGO pretreatment, olaparib was added at this time, in concentrations of from 0.01 μM to 3 μM. At this point, replicate flasks from the OLIGO-treatment were used to enumerate cell content, as this varied among treatments over the initial 24-hour exposure. This was done so that the effect of treatment with olaparib could be ascertained based on the cell population that was present at the time of initiation of exposure to olaparib. Exposure to the olaparib was initiated by addition of 0.2-volume of a preparation of the drug, at 6× final concentration in growth medium, to the fresh drug-free medium on the cells (1 ml of drug into 5 ml of medium). Following a further 4-day incubation, the proliferation of the treated cells (fold-increase in cell number) was calculated as a percentage of that of control cells. Cell numbers were enumerated on an electronic particle counter (Beckman Coulter, Mississauga, ON). As indicated in Example 1, for the purpose of determining the anti-proliferative effect of antisense OLIGOs alone, the proliferation of cells treated with antisense OLIGOs was calculated as a percent of that of cells treated with an equivalent concentration of non-complementary control OLIGO (in this case OLIGO 32). However, for the purpose of determining the anti-proliferative effect of olaparib against antisense or non-complementary (control) OLIGO-treated cells, the proliferation was calculated as a percent of cells treated with the respective OLIGO.
These experiments were carried out essentially as described in Example 3, with the following changes. The drug tested was cisplatin instead of olaparib, and cisplatin was tested in concentrations ranging from 0.5 μM to 2 μM.
These experiments were carried out essentially as described in Example 3, with the following changes. The drug tested was melphalan in concentrations ranging from 2 μM to 10 μM.
These experiments were carried out essentially as described in Example 3, with the following changes. The drug tested was carboplatin at concentrations ranging from 5 μM to 40 μM.
These experiments were carried out essentially as described in Example 3, with the following changes. The drug tested was oxaliplatin was tested in concentrations ranging from 0.2 μM to 2.5 μM.
Cisplatin was added to the final concentration indicated, and as described in Example 3. Cells were incubated for 4 days, at which time cell number was counted. Proliferation was calculated as a percent of siRNA-treated, non-cisplatin-treated controls.

[6] = test system: HK-2 kidney proximal tubule epithelial cells; assay: Cell proliferation assay, ASO transfection then drug (cell counting); type: cell-based, human; conditions: FIG. 52
Protocol: FIG. […] Proliferation was determined by cell counting 96 hours post-transfection (*p<0.05).
as §1

[7] = test system: EP156T primary prostate epithelial cells; assay: Veliparib after BR1 pretreatment; type: cell-based; conditions: FIG. 37

5′-guaucuCTTGACGTuccuua-3′ (GUAUCUCTTGACGTUCCUUA; gapmer, lower-case wings modified, type not given here) [BR1]
enhancement of veliparib [1]: enhances veliparib
effect on acquired cisplatin resistance [2]: reverses acquired cisplatin resistance
effect on antiproliferative activity of cisplatin [3]: enhances the antiproliferative activity of cisplatin
effect on BRCA2 mRNA level [4]: reduction in BRCA2 mRNA
enhanced inhibition of proliferation by olaparib (% decrease in the IC50 value) ([5]; A549 cells, ASO pre-incubation, FIGS. 34, 35): up to 95%
enhancement of cisplatin (words) ([5]; A549 cells): enhances cisplatin
enhancement of cisplatin (words) ([5]; A549 cells, listed as BR-1): enhances the antiproliferative activity of cisplatin or melphalan
enhanced the anti-proliferative effect of olaparib ([5]; BR1 pretreatment, at a given concentration of olaparib, FIG. 2): over 40%
enhancement of veliparib ([5]; BR1 vs ODN 32, A549 cells, FIGS. 36, 37): enhances veliparib
effect on antiproliferative activity of cisplatin [6]: no effect on the antiproliferative activity of cisplatin
enhancement of veliparib [7]: little or not at all
